In US5759768A, “Assays for factors affecting circularization of DNA, assays for factors affecting DNA integration, factors, and uses thereof” (priority 1995, dated 1998):

Experiments:
preintegration complexes = assay: Circularization mediated by partially purified preintegration complexes; format: biochemical, HIV-1; settings: for circular DNA formed by preintegration complexes: 37° C., 45 min
Experimental: Viral preintegration complexes were partially purified from cytoplasmic extracts by Sephacryl S400 gel filtration chromatography. Cytoplasmic extracts (0.8 ml) were loaded onto a 22-ml Sephacryl S400 (Pharmacia) column, 28 cm in height, equilibrated in buffer K containing 0.5% Triton X-100 at 4° C. Fractions (0.5 ml) were collected at a flow rate of approximately 0.2 ml/min.
The linear viral DNA present in cytoplasmic extracts is a part of the nucleoprotein preintegration complex that can be separated from the bulk of cellular proteins by gel filtration chromatography [Farnet and Haseltine, J. Virol., 65: 1910-1915 (1991)]. Preintegration complexes were partially purified by Sephacryl S400 column chromatography and tested for the ability to mediate the circularization of viral DNA. Cytoplasmic extracts (1 ml, vol) were fractionated by Sephacryl S-400 gel filtration chromatography as previously described. The void volume fractions of the column, containing the peak of viral DNA, were pooled (total volume, 1.5 ml) and incubated as follows with the results shown in FIG. 20. Lane 1: column fractions were incubated at 37° C. for 45 minutes; lane 2: linear .phi.X174 DNA was added to column fractions to a final concentrations of 650 ng/ml and incubated at 37° C. for 45 minutes; lane 3: ATPγS was added to column fractions and incubated at 37° C. for 45 minutes; lane 4: same as lane 3, except that an equal volume of cytoplasmic extract from uninfected SupT1 cells was added prior to incubation; lane 5: ATP was added to column fractions to a final concentration of 1 mM and incubated at 37° C. for 45 minutes; lane 6: same as lane 5, except that an equal volume of cytoplasmic extract from uninfected SupT1 cells was added prior to incubation. […] Lane 1: products of the reaction shown in FIG. 20, lane 4, digested with SalI and PstI; lane 2: products of the reaction shown in FIG. 20, lane 5, digested with SalI and PstI; lane 3: products of the reaction shown in FIG. 20, lane 6, digested with SalI and PstI. […] The formation of all types of circular produts was dependent upon the addition of ATP, as viral DNA in column fractions remained linear during incubation at 37° C. in the absence of added ATP (FIG. 20, lane 1), regardless of the addition of uninfected SupT1 cell extracts.

[1] = tested on: purified linear viral DNA; assay: Circularization of purified linear viral DNA in cytoplasmic extracts of uninfected SupT1 cells; format: biochemical, HIV-1; settings: 1 mM, 37° C., 45 min
Experimental: Further evidence of a role for host proteins in the formation of the 1-LTR and simple 2-LTR circular forms of viral DNA was obtained by testing the ability of uninfected cell extracts to mediate the circularization of purfied viral DNA. Linear viral DNA was prepared from cytoplasmic extracts of uninfected cells by SDS-proteinase K treatment and phenol extraction. The purfied DNA was added to cytoplasmic extracts prepared form uninfected SupT1 cells, in the presence or absence of added ATP.
Linear viral DNA was purified from cytoplasmic extracts of cells 4 hours post-infection as described above. In FIG. 22, a purified linear viral DNA was added to cytoplasmic extracts from uninfected SupT1 cells and incubated at 37° C. for 45 minutes. The uninfected SupT1 cells used for the preparation of extracts were either untreated (lanes 3-11) or cultured in the presence of 10 ng/ml phorbol 12-myristate 13-acetate for six hours prior to extraction (lane 2). […] Lanes 2-11: reaction products following incubation of purified linear viral DNA in uninfected extracts containing 1 mM ATP (lanes 2 and 3), nothing added (lane 4), 1 mM dATP (lane 5), 1 mM UTP (lane 6), 1 mM CTP (lane 7), 1 mM GTP (lane 8), 1 mM ATPγS (lane 9), or 1 mM ADP (lane 10). Lane 11: uninfected SupT1 cell extract was treated with proteinase K for 10 minutes at 37° C., then linear viral DNA was added and incubation continued for 45 minutes. In FIG. 23, lanes 1, 2, 4 and 5: purified linear viral DNA was incubated with T4 DNA ligase (lane 1), T4 polynucleotide kinase and T4 DNA ligase (lane 2), Klenow fragment of E. coli DNA polymerase I and T4 DNA ligase […], or Klenow fragment, T4 polynucleotide kinase, and T4 DNA ligase (lane 4). Lanes 3 and 6: in vitro circularization reaction products generated in cell extracts, included as size standards. Lane 3: cytoplasmic extracts from infected cells were incubated with […] for 45 minutes; lane 6: purified linear viral DNA was incubated with cytoplasmic extract from uninfected SupT1 cells in the presence of 1 mM ATP for 45 minutes. The possibility that a host DNA ligase was responsible for the formation of the simple 2-LTR circles was examined by testing the ability of phage T4 ligase to catalyze the circularization of linear viral DNA. […] Restriction endonuclease analysis of the reaction products formed in the presence of both Klenow fragment and T4 DNA ligase confirmed the formation of new 2-LTR junctions (not shown). […] This observation is consistent with previous reports that linear viral DNA prepared from cells infected with the murine leukemia virus [Fujiwara and Mizuuchi, Cell, 54:497-504 (1988) and HIV-1 [Pauza, Virology, 179:886-887 (1990)] consists of a mixture of molecules that are either blunt-ended or recessed by two nucleotides at each 3'-terminus. The removal of the two terminal nucleotides is mediated by the viral integrase as a necessary step in the process of integration [Roth et al., Cell 58: 47-54 (1989)]. […] This would explain the requirement of DNA polymerase for the subsequent joining of the ends of viral DNA by DNA ligase.

Structure (SMILES) | 1-LTR circle formation by preintegration complexes (preintegration complexes; 1 mM ATP, plus cytoplasmic extract from uninfected SupT1 cells) | 2-LTR junction fragment from preintegration complexes (preintegration complexes; 1 mM ATP, plus uninfected SupT1 cell extract) | circular DNA formed by preintegration complexes (preintegration complexes; 1 mM, column fractions) | 1-LTR circles from purified linear viral DNA [1] | 2-LTR circles from purified linear viral DNA [1] | circularization of purified linear viral DNA [1] | circular DNA formed by preintegration complexes (preintegration complexes; in presence and absence of uninfected cell extracts) | ability to substitute for ATP in formation of simple 2-LTR circles [1]
Nc1ncnc2c1ncn2[C@@H]1O[C@H](COP(=O)(O)OP(=O)(O)OP(=O)(O)O)[C@@H](O)[C@H]1O [ATP, adenosine triphosphate] | restored the ability to form 1-LTR circles | a small amount of new 2-LTR junction fragment was also detected | formation of only the 2-LTR circular DNA form | The most abundant of the new DNA forms comigrated with the 1-LTR circular DNA molecules | a small amount of product migrating as 2-LTR circles could also be detected | New, slowly migrating DNA species were detected | – | –
Nc1ncnc2c1ncn2[C@@H]1O[C@H](COP(=O)(O)OP(=O)(O)OP(O)(O)=S)[C@@H](O)[C@H]1O [ATPγS] | – | – | – | – | – | failed to induce the circularization of purified linear viral DNA | exclusive formation of autointegration 2-LTR circles | None of the other nucleoside triphosphates tested, nor ATPγS, was able to substitute for ATP
